Laboratory results: patent publication US20080260661A1, “Aminobutadiene-Based Uv Screens” (Fuji Photo Film B.V., priority 2004, published 2008)

assay: Appearance of formulation after application to the transparent substrate; assay type: physicochemical; conditions: not given

For `CCCCCCCCCCOC(=O)/C(=C/C=C/N(C)C)C(C)=O` [Structure 1.12r], the “Appearance (colour) of formulation” value was “had a colourless appearance after application to the transparent substrate, except for structure 1.12r”.

assay: Absorption maximum of the structures; assay type: physicochemical; conditions: Table 1; measured in methanol, or if not soluble in methanol, in ethanol
Procedure: Absorption maxima of the structures in Tables 1 to 3 are measured in methanol, or if not soluble in methanol, in ethanol.

Compared with `CCCCCCN(/C=C/C=C(/C(=O)OCC)S(=O)(=O)c1ccccc1)CCCCCC` [Structure 1.1i], `CCCCCCN(/C=C/C=C(\C(C)=O)S(=O)(=O)c1ccccc1)CCCCCC` [Structure 1.8r] is higher in Absorption maximum: 373 nm for the first, 385 nm for the second.

First: CCCCN(/C=C/C=C(\C(=O)OC)S(=O)(=O)c1ccc(C(C)(C)C)cc1)CCCC [Structure 1.2i]
Second: CCCCN(/C=C/C=C(\C(C)=O)S(=O)(=O)c1ccc(C)cc1)CCCC [Structure 1.7r]
The Absorption maximum of the first is lower: 373 nm for the first, 385 nm for the second.

First: CCCCC(CC)COC(=O)C(=C/C=C/N(C)C)C(=O)OCC(CC)CCCC (stereo not drawn) [Structure 1.3i]
Second: CCCCCCCCCCOC(=O)/C(=C/C=C/N(C)C)C(C)=O [Structure 1.12r]
The Absorption maximum of the first is lower: 374 nm for the first, 394 nm for the second.

Compared with `CCCCCCN(/C=C/C=C(\C(=O)OCCOc1ccc(C(C)(C)CC)cc1C(C)(C)CC)S(=O)(=O)c1ccc(C)cc1)CCCCCC` [Structure 1.4i], `CCCCCCN(/C=C/C=C(C(C)=O)C(C)=O)CCCCCC` [Structure 1.13r] is higher in Absorption maximum: 374 nm for the first, 395 nm for the second.

Compared with `CCCCCCN(/C=C/C=C(C#N)C#N)CCCCCC` [Structure 1.5i], `CCCCCCN(/C=C/C=C1C(=O)N(C)N(C)C1=O)CCCCCC` [Structure 1.9r] is higher in Absorption maximum: 378 nm for the first, 387 nm for the second.

Going from `CCCCN(/C=C/C=C1C(=O)CC(C)(C)CC1=O)CCCC` [Structure 1.6r] to `CCCCCCN(/C=C/C=C1C(=O)N(C)C(=O)N(C)C1=O)CCCCCC` [Structure 1.10r], the Absorption maximum falls from 389 nm to 388 nm.

same assay, conditions: Table 2; measured in methanol, or if not soluble in methanol, in ethanol

Compared with `CCCCCCCCCCOC(=O)/C(=C\C=C\N1CCCCC1)S(=O)(=O)c1ccccc1` [Structure 2.1i], `CC(=O)/C(=C\C=C\N1CCOCC1)S(=O)(=O)c1ccccc1` [Structure 2.2r] is higher in Absorption maximum: 375 nm for the first, 383 nm for the second.

With `CCCCC(CC)COC(=O)C(=CC=CN1CCCCC1)C(C)=O` (stereo not drawn) [Structure 2.3r] the Absorption maximum was 395 nm.

same assay, conditions: Table 3; measured in methanol, or if not soluble in methanol, in ethanol

Going from `Cc1ccc(S(=O)(=O)/C(C#N)=C\C=C2\OCC(C)(C)N2C)cc1` [Structure 3.1i] to `CCCCCCOC(=O)/C(=C/C=C1/OCC(C)(C)N1C)S(=O)(=O)c1ccccc1` [Structure 3.2i], the Absorption maximum rises from 361 nm to 362 nm.

Compared with `CCCCCCCCCCCCN1/C(=C\C=C(C#N)C#N)OCC1(C)C` [Structure 3.3i], `CCCCCCCCCCCCOC(=O)/C(C#N)=C/C=C1/OCC(C)(C)N1C` [Structure 3.5i] is higher in Absorption maximum: 372 nm for the first, 374 nm for the second.

Going from `CCCCCCCCCCN1/C(=C\C=C(\C(C)=O)S(=O)(=O)c2ccccc2)OCC1(C)C` [Structure 3.4i] to `CCCCCCCCCCN1CCC/C1=C/C=C(/C(C)=O)S(=O)(=O)c1ccccc1` [Structure 3.7r], the Absorption maximum rises from 373 nm to 392 nm.

Compared with `CCCCCCCCCCN1CCC/C1=C/C=C(/C(=O)OCC)S(=O)(=O)c1ccc(OC)cc1` [Structure 3.6i], `CCCCCCCCCCN1/C(=C\C=C(\C(=O)OCCCCCC)S(=O)(=O)c2ccc(C)cc2)SCC1C` (stereo not drawn) [Structure 3.8r] is higher in Absorption maximum: 375 nm for the first, 392 nm for the second.
